Structures can show the parent of a compound that is named as a salt. Where two headings read alike, the source gives them in different places.
How the values were obtained:
[1] = tested on: CD69 expression on CD19+ B cells in whole blood; experiment: In Vitro Whole Blood CD69 Assay; format: cell-based, Human; conditions: Homo sapiens, B-cell
Experimental: In Vitro Whole Blood CD69 Assay
Human heparinized venous blood from health donors was aliquoted into 96-well plate and “spiked” with serial dilutions of formula I compounds in DMSO or with DMSO without drug. The final concentration of DMSO in all wells was 0.1%. The plate was incubated at 37° C. for 30 min. Drug-containing samples were stimulated with 0.1 μg/mL mouse anti-human IgD-dextran (1A62) or 20 μg/mL polyclonal rabbit F(ab′)2 anti-human IgD. Phosphate-buffered saline (PBS) was added to the negative control unstimulated sample and the plates were incubated overnight (18 to 22 hours) at 37° C. Cells were stained with fluorochrome-conjugated anti-CD19 and anti-CD69 antibodies. Lyse/fix solution was used to remove red blood cells by hypotonic lysis and to fix the remaining cells, which were then analyzed by flow cytometry. CD19+ B cells were gated and analyzed for CD69 expression. The percentage of B cells expressing CD69 was plotted versus the log 10 of the concentration of the drug and the best-fit curves (variable Hill slope) were generated to obtain the IC50 value.

[2] = biological target: BTK (Homo sapiens (Human), UniProt Q06187); experiment: In Vitro BTK Kinase Assay: Btk-PolyGAT-LS Assay; format: biochemical; conditions: active BTK enzyme 0.25 nM, ATP 10 μM, polyGAT 100 nM, 30 minutes
BTK, sequence (Q06187 whole entry): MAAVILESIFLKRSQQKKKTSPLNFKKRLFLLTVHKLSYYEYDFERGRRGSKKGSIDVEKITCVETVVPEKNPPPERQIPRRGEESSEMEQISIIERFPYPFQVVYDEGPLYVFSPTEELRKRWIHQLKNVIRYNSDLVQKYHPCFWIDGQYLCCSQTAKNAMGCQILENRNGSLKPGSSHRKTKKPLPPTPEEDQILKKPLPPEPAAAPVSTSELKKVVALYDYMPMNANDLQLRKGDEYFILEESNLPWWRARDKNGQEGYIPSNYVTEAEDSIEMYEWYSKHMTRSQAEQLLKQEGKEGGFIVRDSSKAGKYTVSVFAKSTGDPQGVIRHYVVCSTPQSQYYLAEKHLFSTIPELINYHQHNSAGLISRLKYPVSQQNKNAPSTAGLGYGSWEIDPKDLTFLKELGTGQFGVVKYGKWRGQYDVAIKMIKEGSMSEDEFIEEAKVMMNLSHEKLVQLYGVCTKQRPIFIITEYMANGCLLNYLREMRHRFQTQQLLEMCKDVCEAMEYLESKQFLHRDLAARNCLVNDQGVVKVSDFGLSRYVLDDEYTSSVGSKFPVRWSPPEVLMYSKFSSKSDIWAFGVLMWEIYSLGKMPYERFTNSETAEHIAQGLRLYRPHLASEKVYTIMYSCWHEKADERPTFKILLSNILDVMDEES
How it was run: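 Recombinant BTK (0.25 nM) phosphorylating 100 nM polyGAT at 10 μM ATP in Tris-HCl pH 7.5 buffer with MgCl2, DTT, Triton X-100 and casein, 30 min, then EDTA stop.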

[3] = human heparinized whole blood, anti-human IgD stimulation, percentage of CD19+ B cells expressing CD69, read-out: IC50

SMILES: Cc1cc(-c2ncnn3cc(N4CCN(C)[C@@H](C)C4)cc23)ccc1CNC(=O)c1nc(C(C)(C)C)no1 (single isomer, unassigned) [Example 28]
- IC50 [1, 3]: 100 to 1000 nM
- IC50 [2]: ≤ 1 nM

SMILES: Cc1cc(-c2ncnn3cc(N4C[C@@H](C)O[C@@H](C)C4)cc23)ccc1CNC(=O)c1noc(C(C)(C)C)n1 [Example 39, 5-(tert-butyl)-N-(4-(6-((2,6-syn)-2,6-dimethylmorpholino)pyrrolo[2,1-f][1,2,4]triazin-4-yl)-2-methylbenzyl)-1,2,4-oxadiazole-3-carboxamide]
- IC50 [1, 3]: 100 to 1000 nM
- IC50 [2]: ≤ 1 nM

SMILES: Cc1cc(-c2ncnn3cc(N4CCN(C5COC5)CC4)cc23)ccc1CNC(=O)c1noc(C(C)(C)C)n1 [Example 32, 5-(tert-butyl)-N-(2-methyl-4-(6-(4-(oxetan-3-yl)piperazin-1-yl)pyrrolo[2,1-f][1,2,4]triazin-4-yl)benzyl)-1,2,4-oxadiazole-3-carboxamide trifluoroacetate]
- IC50 [1, 3]: 100 to 1000 nM
- IC50 [2]: ≤ 1 nM

SMILES: COCCOc1cc2c(-c3ccc(CNC(=O)c4noc(C(C)(C)C)n4)c(C)c3)ncnn2c1 [Example 58, 5-(tert-butyl)-N-(4-(6-(2-methoxyethoxy)pyrrolo[2,1-f][1,2,4]triazin-4-yl)-2-methylbenzyl)-1,2,4-oxadiazole-3-carboxamide]
- IC50 [1, 3]: < 100 nM
- IC50 [2]: ≤ 1 nM

SMILES: Cc1cc(-c2ccnc3cc(-c4cnn(C)c4)nn23)ccc1CNC(=O)c1noc(C(C)(C)C)n1 [Example 16, 5-(tert-butyl)-N-(2-methyl-4-(2-(1-methyl-1H-pyrazol-4-yl)pyrazolo[1,5-a]pyrimidin-7-yl)benzyl)-1,2,4-oxadiazole-3-carboxamide trifluoroacetate]
- IC50 [1, 3]: 100 to 1000 nM
- IC50 [2]: ≤ 1 nM

SMILES: CO[C@@H]1CCN(c2cc3c(-c4ccc(CNC(=O)c5nc(C(C)(C)C)no5)c(C)c4)ncnn3c2)C1 (single isomer, unassigned) [Example 24]
- IC50 [1, 3]: 100 to 1000 nM
- IC50 [2]: ≤ 1 nM

SMILES: COc1c(CNC(=O)c2nc(C(C)(C)C)no2)ccc(-c2ncnn3cc(-c4cnn(C)c4)cc23)c1F [Example 45, 3-(tert-butyl)-N-(3-fluoro-2-methoxy-4-(6-(1-methyl-1H-pyrazol-4-yl)pyrrolo[2,1-f][1,2,4]triazin-4-yl)benzyl)-1,2,4-oxadiazole-5-carboxamide]
- IC50 [1, 3]: 100 to 1000 nM
- IC50 [2]: ≤ 1 nM

SMILES: CC(C)(C)c1nc(C(=O)NCc2ccc(-c3ncnn4cc(N5CCOCC5)cc34)cc2C(F)(F)F)no1 [Example 34, 5-(tert-butyl)-N-(4-(6-morpholinopyrrolo[2,1-f][1,2,4]triazin-4-yl)-2-(trifluoromethyl)benzyl)-1,2,4-oxadiazole-3-carboxamide hydrochloride]
- IC50 [1, 3]: 100 to 1000 nM
- IC50 [2]: ≤ 1 nM

SMILES: Cc1cc(-c2ncnn3cc(N4CCO[C@H](C)C4)cc23)ccc1CNC(=O)c1noc(C(C)(C)C)n1 (single isomer, unassigned) [Example 30]
- IC50 [1, 3]: 100 to 1000 nM
- IC50 [2]: ≤ 1 nM

SMILES: Cn1cc(-c2cc3c(-c4ccc(CNC(=O)c5noc(C(C)(C)C)n5)c(C(F)F)c4F)ncnn3c2)cn1 [Example 36, 5-(tert-butyl)-N-(2-(difluoromethyl)-3-fluoro-4-(6-(1-methyl-1H-pyrazol-4-yl)pyrrolo[2,1-f][1,2,4]triazin-4-yl)benzyl)-1,2,4-oxadiazole-3-carboxamide hydrochloride]
- IC50 [1, 3]: 100 to 1000 nM
- IC50 [2]: ≤ 1 nM

SMILES: Cc1cc(-c2ncnn3cc(-c4cnn(CC(F)F)c4)cc23)ccc1CNC(=O)c1noc(C(C)(C)C)n1 [Example 10, 5-(tert-butyl)-N-(4-(6-(1-(2,2-difluoroethyl)-1H-pyrazol-4-yl)pyrrolo[2,1-f][1,2,4]triazin-4-yl)-2-methylbenzyl)-1,2,4-oxadiazole-3-carboxamide trifluoroacetate]
- IC50 [1, 3]: 100 to 1000 nM
- IC50 [2]: ≤ 1 nM

SMILES: Cc1cc(-c2ncnn3cc(-c4ccncc4)cc23)ccc1CNC(=O)c1noc(C(C)(C)C)n1 [Example 38, 5-(tert-butyl)-N-(2-methyl-4-(6-(pyridin-4-yl)pyrrolo[2,1-f][1,2,4]triazin-4-yl)benzyl)-1,2,4-oxadiazole-3-carboxamide]
- IC50 [1, 3]: 100 to 1000 nM
- IC50 [2]: ≤ 1 nM

SMILES: Cc1c([C@@H](C)NC(=O)c2noc(C(C)(C)C)n2)ccc(-c2ncnn3cc(N4CCOCC4)cc23)c1F [Example 31, (R)-5-(tert-butyl)-N-(1-(3-fluoro-2-methyl-4-(6-morpholinopyrrolo[2,1-f][1,2,4]triazin-4-yl)phenyl)ethyl)-1,2,4-oxadiazole-3-carboxamide]
- IC50 [1, 3]: 100 to 1000 nM
- IC50 [2]: ≤ 1 nM

SMILES: COc1cc(-c2ncnn3cc(-c4cnn(C)c4)cc23)ccc1CNC(=O)c1noc(C(C)(C)C)n1 [Example 35, 5-(tert-butyl)-N-(2-methoxy-4-(6-(1-methyl-1H-pyrazol-4-yl)pyrrolo[2,1-f][1,2,4]triazin-4-yl)benzyl)-1,2,4-oxadiazole-3-carboxamide hydrochloride]
- IC50 [1, 3]: 100 to 1000 nM
- IC50 [2]: ≤ 1 nM

SMILES: CC(C)(C)c1nc(C(=O)NCc2ccc(-c3ncnn4cc(N5CCOCC5)cc34)cc2C2CC2)no1 [Example 37, 5-(tert-butyl)-N-(2-cyclopropyl-4-(6-morpholinopyrrolo[2,1-f][1,2,4]triazin-4-yl)benzyl)-1,2,4-oxadiazole-3-carboxamide]
- IC50 [1, 3]: > 1000 nM
- IC50 [2]: ≤ 1 nM

SMILES: Cc1cc(-c2ncnn3cc(-c4cnn(C)c4)cc23)ccc1[C@@H](C)NC(=O)c1nc(C(C)(C)C)no1 [Example 57, (R)-3-(tert-butyl)-N-(1-(2-methyl-4-(6-(1-methyl-1H-pyrazol-4-yl)pyrrolo[2,1-f][1,2,4]triazin-4-yl)phenyl)ethyl)-1,2,4-oxadiazole-5-carboxamide]
- IC50 [1, 3]: 100 to 1000 nM
- IC50 [2]: ≤ 1 nM

SMILES: COCCn1cc(-c2cc3c(-c4ccc(CNC(=O)c5noc(C(C)(C)C)n5)c(C)c4)ncnn3c2)cn1 [Example 7, 5-(tert-butyl)-N-(4-(6-(1-(2-methoxyethyl)-1H-pyrazol-4-yl)pyrrolo[2,1-f][1,2,4]triazin-4-yl)-2-methylbenzyl)-1,2,4-oxadiazole-3-carboxamide]
- IC50 [1, 3]: < 100 nM
- IC50 [2]: ≤ 1 nM

SMILES: Cc1cc(-c2ncnn3cc(N4CCN(C)CC4)cc23)ccc1CNC(=O)c1noc(C(C)(C)C)n1 [Example 4, 5-(tert-butyl)-N-(2-methyl-4-(6-(4-methylpiperazin-1-yl)pyrrolo[2,1-f][1,2,4]triazin-4-yl)benzyl)-1,2,4-oxadiazole-3-carboxamide trifluoroacetate]
- IC50 [1, 3]: < 100 nM
- IC50 [2]: ≤ 1 nM

SMILES: CC(C)(C)c1noc(C(=O)NCc2ccc(-c3ncnn4cc(N5CCOCC5)cc34)c(F)c2Cl)n1 [Example 14, 3-(tert-butyl)-N-(2-chloro-3-fluoro-4-(6-morpholinopyrrolo[2,1-f][1,2,4]triazin-4-yl)benzyl)-1,2,4-oxadiazole-5-carboxamide trifluoroacetate]
- IC50 [1]: 100 to 1000 nM
- IC50 [2]: ≤ 1 nM

SMILES: Cc1cc(-c2ncnn3cc(-c4cnn(C)c4)cc23)ccc1CNC(=O)c1noc(C2(C)CC2)n1 [Example 40, N-(2-methyl-4-(6-(1-methyl-1H-pyrazol-4-yl)pyrrolo[2,1-f][1,2,4]triazin-4-yl)benzyl)-5-(1-methylcyclopropyl)-1,2,4-oxadiazole-3-carboxamide]
- IC50 [1, 3]: 100 to 1000 nM
- IC50 [2]: ≤ 1 nM

SMILES: Cc1cc(-c2ncnn3cc(-c4ccn(C)n4)cc23)ccc1CNC(=O)c1noc(C(C)(C)C)n1 [Example 9, 5-(tert-butyl)-N-(2-methyl-4-(6-(1-methyl-1H-pyrazol-3-yl)pyrrolo[2,1-f][1,2,4]triazin-4-yl)benzyl)-1,2,4-oxadiazole-3-carboxamide trifluoroacetate]
- IC50 [1, 3]: 100 to 1000 nM
- IC50 [2]: ≤ 1 nM

SMILES: Cc1cc(-c2ncnn3cc(N4CCC(F)(F)C4)cc23)ccc1CNC(=O)c1noc(C(C)(C)C)n1 [Example 12, 5-(tert-butyl)-N-(4-(6-(3,3-difluoropyrrolidin-1-yl)pyrrolo[2,1-f][1,2,4]triazin-4-yl)-2-methylbenzyl)-1,2,4-oxadiazole-3-carboxamide trifluoroacetate]
- IC50 [1, 3]: 100 to 1000 nM
- IC50 [2]: ≤ 1 nM

SMILES: COC1CN(c2cc3c(-c4ccc(CNC(=O)c5noc(C(C)(C)C)n5)c(C)c4)ncnn3c2)C1 [Example 8, 5-(tert-butyl)-N-(4-(6-(3-methoxyazetidin-1-yl)pyrrolo[2,1-f][1,2,4]triazin-4-yl)-2-methylbenzyl)-1,2,4-oxadiazole-3-carboxamide]
- IC50 [1, 3]: 100 to 1000 nM
- IC50 [2]: ≤ 1 nM

SMILES: Cc1c(CNC(=O)c2noc(C(C)(C)CF)n2)ccc(-c2ncnn3cc(-c4cnn(C)c4)cc23)c1F [Example 33, N-(3-fluoro-2-methyl-4-(6-(1-methyl-1H-pyrazol-4-yl)pyrrolo[2,1-f][1,2,4]triazin-4-yl)benzyl)-5-(1-fluoro-2-methylpropan-2-yl)-1,2,4-oxadiazole-3-carboxamide]
- IC50 [1, 3]: 100 to 1000 nM
- IC50 [2]: ≤ 1 nM

SMILES: Cc1cc(-c2ncnn3cc(N4CCC(F)C4)cc23)ccc1CNC(=O)c1noc(C(C)(C)C)n1 (stereo not drawn) [Example 11, 5-(tert-butyl)-N-(4-(6-(3-fluoropyrrolidin-1-yl)pyrrolo[2,1-f][1,2,4]triazin-4-yl)-2-methylbenzyl)-1,2,4-oxadiazole-3-carboxamide trifluoroacetate]
- IC50 [1, 3]: 100 to 1000 nM
- IC50 [2]: ≤ 1 nM

SMILES: Cc1cc(-c2ncnn3cc(N4CCN(C)C[C@H]4C)cc23)ccc1CNC(=O)c1noc(C(C)(C)C)n1 [Example 92]
- IC50 [2]: 1 to 10 nM
